Source: US11970498B2, “CDK2 inhibitors” (BLUEPRINT MEDICINES CORPORATION, priority 2021, dated 2024)

Tests used:
CDK2/Cyclin E = CDK2/Cyclin E (Homo sapiens, UniProt P24941); experiment: CDK2/Cyclin E biochemical phosphorylation assay (Caliper mobility shift); conditions: apparent IC50; 1.0 mM ATP or ATP Km; 1.25 nM enzyme; 25° C.; read-out: CDK2/cyclin E1 IC50
Summary of the method: (§1)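 7.5 µM 5-FAM-QSPKKG-CONH2 peptide phosphorylated by CDK2/Cyclin E (1.25 nM) or GST-CDK1/Cyclin B1 (1.5 nM) at 1.0 mM ATP or ATP Km, in HEPES pH 7.5, MgCl2, Brij-35, DTT, 1% DMSO, 25 °C to 10–20% conversion. EDTA stop; Caliper mobility-shift readout; apparent IC50 from percent activity vs log concentration.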

CDK1/Cyclin B1, GST-tag = biological target: T1, CDK1/Cyclin B1, GST-tag (Homo sapiens, UniProt P06493); experiment: CDK1/Cyclin B1 biochemical phosphorylation assay (Caliper mobility shift); conditions: apparent IC50; 1.0 mM ATP or ATP Km; 1.5 nM enzyme; 25° C.
T1 construct: GST
T1 sequence (P06493 whole entry): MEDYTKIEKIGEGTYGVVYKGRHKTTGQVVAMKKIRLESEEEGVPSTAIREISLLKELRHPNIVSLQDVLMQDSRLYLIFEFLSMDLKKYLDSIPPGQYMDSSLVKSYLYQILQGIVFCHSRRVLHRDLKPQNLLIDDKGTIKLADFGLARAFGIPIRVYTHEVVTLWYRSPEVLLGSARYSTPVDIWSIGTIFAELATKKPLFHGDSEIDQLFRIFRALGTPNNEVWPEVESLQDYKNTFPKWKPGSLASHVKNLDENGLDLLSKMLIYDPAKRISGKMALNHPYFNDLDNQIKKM
T1 sequence (P14635 whole entry partner): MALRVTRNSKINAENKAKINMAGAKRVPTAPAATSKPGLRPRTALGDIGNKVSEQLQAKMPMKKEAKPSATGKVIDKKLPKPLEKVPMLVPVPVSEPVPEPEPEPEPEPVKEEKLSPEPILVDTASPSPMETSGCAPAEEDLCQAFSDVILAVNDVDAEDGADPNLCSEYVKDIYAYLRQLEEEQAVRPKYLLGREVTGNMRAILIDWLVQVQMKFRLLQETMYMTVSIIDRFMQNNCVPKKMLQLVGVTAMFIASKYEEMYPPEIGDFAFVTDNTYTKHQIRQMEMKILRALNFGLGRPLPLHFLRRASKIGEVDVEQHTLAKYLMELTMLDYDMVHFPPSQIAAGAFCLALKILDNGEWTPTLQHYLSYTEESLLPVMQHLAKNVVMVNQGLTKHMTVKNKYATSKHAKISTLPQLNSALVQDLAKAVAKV
Summary of the method: as §1

SMILES	IC50 (CDK2/Cyclin E)	IC50 (CDK1/Cyclin B1, GST-tag)
FC(F)Oc1cc(Nc2cnc3cnn([C@@H](c4cccnc4)C4CC4)c3n2)n[nH]1 (single isomer, unassigned) [Example 148, (S)-1-(cyclopropyl(pyridin-3-yl)methyl)-N-(5-(difluoromethoxy)-1H-pyrazol-3-yl)-1H-pyrazolo[3,4-b]pyrazin-6-amine or (R)-1-(cyclopropyl(pyridin-3-yl)methyl)-N-(5-(difluoromethoxy)-1H-pyrazol-3-yl)-1H-pyrazolo[3,4-b]pyrazin-6-amine]	≤ 10 nM	≥ 500 nM
N#CC1(Cn2ncc3ncc(Nc4cc(OC(F)F)[nH]n4)nc32)CCOCC1 [Example 115, 4-((6-((5-(difluoromethoxy)-1H-pyrazol-3-yl)amino)-1H-pyrazolo[3,4-b]pyrazin-1-yl)methyl)tetrahydro-2H-pyran-4-carbonitrile]	30 to 100 nM	≥ 500 nM
CC[C@@H](c1cccnc1)n1ncc2ncc(Nc3cc(OC(F)F)[nH]n3)nc21 [Example 94, (S)-N-(5-(difluoromethoxy)-1H-pyrazol-3-yl)-1-(1-(pyridin-3-yl)propyl)-1H-pyrazolo[3,4-b]pyrazin-6-amine]	≤ 10 nM	≥ 500 nM
FC(F)Oc1cc(Nc2cnc3cnn(C4CCC(F)(F)CC4)c3n2)n[nH]1 [Example 44, 1-(4,4-difluorocyclohexyl)-N-(5-(difluoromethoxy)-1H-pyrazol-3-yl)-1H-pyrazolo[3,4-b]pyrazin-6-amine]	10 to 20 nM	≥ 500 nM
FC(F)Oc1cc(Nc2cnc3cnn([C@H](c4ccccc4)C4COC4)c3n2)n[nH]1 (single isomer, unassigned) [Example 162, (R)-N-(5-(difluoromethoxy)-1H-pyrazol-3-yl)-1-(oxetan-3-yl(phenyl)methyl)-1H-pyrazolo[3,4-b]pyrazin-6-amine or (S)-N-(5-(difluoromethoxy)-1H-pyrazol-3-yl)-1-(oxetan-3-yl(phenyl)methyl)-1H-pyrazolo[3,4-b]pyrazin-6-amine]	> 100 nM	≥ 500 nM
FC(F)Oc1cc(Nc2cnc3cnn([C@H](C4CCOCC4)C4CC4)c3n2)n[nH]1 (single isomer, unassigned) [Example 158, (R)-1-(cyclopropyl(tetrahydro-2H-pyran-4-yl)methyl)-N-(5-(difluoromethoxy)-1H-pyrazol-3-yl)-1H-pyrazolo[3,4-b]pyrazin-6-amine or (S)-1-(cyclopropyl(tetrahydro-2H-pyran-4-yl)methyl)-N-(5-(difluoromethoxy)-1H-pyrazol-3-yl)-1H-pyrazolo[3,4-b]pyrazin-6-amine]	30 to 100 nM	≥ 500 nM
FC[C@H](C1CCOCC1)n1ncc2ncc(Nc3cc(OC(F)F)[nH]n3)nc21 (single isomer, unassigned) [Example 183]	30 to 100 nM	≥ 500 nM
CC(C)(C1CC1)n1ncc2ncc(Nc3cc(OC(F)F)[nH]n3)nc21 [Example 23, 1-(2-cyclopropylpropan-2-yl)-N-(5-(difluoromethoxy)-1H-pyrazol-3-yl)-1H-pyrazolo[3,4-b]pyrazin-6-amine]	≤ 10 nM	100 to 500 nM
CC(C)(C)n1ncc2ncc(Nc3cc(OC(F)F)[nH]n3)nc21 [Example 79, 1-(tert-butyl)-N-(5-(difluoromethoxy)-1H-pyrazol-3-yl)-1H-pyrazolo[3,4-b]pyrazin-6-amine]	20 to 30 nM	≥ 500 nM
C[C@@H](C1CCOCC1)n1ncc2ncc(Nc3cc(OC(F)F)[nH]n3)nc21 [Example 77, (S)-N-(5-(difluoromethoxy)-1H-pyrazol-3-yl)-1-(1-(tetrahydro-2H-pyran-4-yl)ethyl)-1H-pyrazolo[3,4-b]pyrazin-6-amine]	≤ 10 nM	100 to 500 nM
FC(F)Oc1cc(Nc2cnc3c(Cl)nn(CC4CCOCC4)c3n2)n[nH]1 [Example 56, 3-chloro-N-(5-(difluoromethoxy)-1H-pyrazol-3-yl)-1-((tetrahydro-2H-pyran-4-yl)methyl)-1H-pyrazolo[3,4-b]pyrazin-6-amine]	10 to 20 nM	≥ 500 nM
FC(F)Oc1cc(Nc2cnc3cnn(CC4CCCCC4)c3n2)n[nH]1 [Example 105, 1-(cyclohexylmethyl)-N-(5-(difluoromethoxy)-1H-pyrazol-3-yl)-1H-pyrazolo[3,4-b]pyrazin-6-amine]	≤ 10 nM	100 to 500 nM
C[C@@H](O)c1nn([C@@H](C)C2CCOCC2)c2nc(Nc3cc(OC(F)F)[nH]n3)cnc12 (single isomer, unassigned) [Example 182, (S)-1-(6-((5-(difluoromethoxy)-1H-pyrazol-3-yl)amino)-1-((S)-1-(tetrahydro-2H-pyran-4-yl)ethyl)-1H-pyrazolo[3,4-b]pyrazin-3-yl)ethan-1-ol or (R)-1-(6-((5-(difluoromethoxy)-1H-pyrazol-3-yl)amino)-1-((S)-1-(tetrahydro-2H-pyran-4-yl)ethyl)-1H-pyrazolo[3,4-b]pyrazin-3-yl)ethan-1-ol]	≤ 10 nM	≥ 500 nM
C[C@@H](c1cccnn1)n1ncc2ncc(Nc3cc(OC(F)F)[nH]n3)nc21 (single isomer, unassigned) [Example 24, (S)—N-(5-(difluoromethoxy)-1H-pyrazol-3-yl)-1-(1-(pyridazin-3-yl)ethyl)-1H-pyrazolo[3,4-b]pyrazin-6-amine or (R)—N-(5-(difluoromethoxy)-1H-pyrazol-3-yl)-1-(1-(pyridazin-3-yl)ethyl)-1H-pyrazolo[3,4-b]pyrazin-6-amine]	≤ 10 nM	100 to 500 nM
COc1cc(Nc2cnc3cnn(C[C@H]4CCCOC4)c3n2)n[nH]1 [Example 140, (R)-N-(5-methoxy-1H-pyrazol-3-yl)-1-((tetrahydro-2H-pyran-3-yl)methyl)-1H-pyrazolo[3,4-b]pyrazin-6-amine]	10 to 20 nM	≥ 500 nM
O[C@H]1CC[C@@H](n2ncc3ncc(Nc4cc(OC(F)F)[nH]n4)nc32)C1 (single isomer, unassigned) [Example 210]	> 100 nM	≥ 500 nM
COc1cc(Nc2cnc3cnn(CC4CCOCC4)c3n2)n[nH]1 [Example 92, N-(5-methoxy-1H-pyrazol-3-yl)-1-((tetrahydro-2H-pyran-4-yl)methyl)-1H-pyrazolo[3,4-b]pyrazin-6-amine]	≤ 10 nM	≥ 500 nM
COc1cc(Nc2cnc3cnn([C@@H](C)c4cccnc4)c3n2)n[nH]1 [Example 67, (S)-N-(5-methoxy-1H-pyrazol-3-yl)-1-(1-(pyridin-3-yl)ethyl)-1H-pyrazolo[3,4-b]pyrazin-6-amine]	≤ 10 nM	≥ 500 nM
FC[C@H](c1ccccn1)n1ncc2ncc(Nc3cc(OC(F)F)[nH]n3)nc21 (single isomer, unassigned) [Example 16, (S)—N-(5-(difluoromethoxy)-1H-pyrazol-3-yl)-1-(2-fluoro-1-(pyridin-2-yl)ethyl)-1H-pyrazolo[3,4-b]pyrazin-6-amine or (R)—N-(5-(difluoromethoxy)-1H-pyrazol-3-yl)-1-(2-fluoro-1-(pyridin-2-yl)ethyl)-1H-pyrazolo[3,4-b]pyrazin-6-amine]	≤ 10 nM	≥ 500 nM
FC(F)Oc1cc(Nc2cnc3cnn(Cc4cccnn4)c3n2)n[nH]1 [Example 222, N-(5-(difluoromethoxy)-1H-pyrazol-3-yl)-1-(pyridazin-3-ylmethyl)-1H-pyrazolo[3,4-b]pyrazin-6-amine]	≤ 10 nM	≥ 500 nM
Fc1cccc(Cn2ncc3ncc(Nc4cc(OC(F)F)[nH]n4)nc32)c1 [Example 39, N-(5-(difluoromethoxy)-1H-pyrazol-3-yl)-1-(3-fluorobenzyl)-1H-pyrazolo[3,4-b]pyrazin-6-amine]	20 to 30 nM	≥ 500 nM
FC(F)Oc1cc(Nc2cnc3cnn(CC4CCCC4)c3n2)n[nH]1 [Example 104, 1-(cyclopentylmethyl)-N-(5-(difluoromethoxy)-1H-pyrazol-3-yl)-1H-pyrazolo[3,4-b]pyrazin-6-amine]	≤ 10 nM	100 to 500 nM
Cn1cncc1Cn1ncc2ncc(Nc3cc(OC(F)F)[nH]n3)nc21 [Example 131, N-(5-(difluoromethoxy)-1H-pyrazol-3-yl)-1-((1-methyl-1H-imidazol-5-yl)methyl)-1H-pyrazolo[3,4-b]pyrazin-6-amine]	30 to 100 nM	≥ 500 nM
FC(F)Oc1cc(Nc2cnc3cnn(C[C@H]4CCCOC4)c3n2)n[nH]1 (single isomer, unassigned) [Example 141, (R)-N-(5-(difluoromethoxy)-1H-pyrazol-3-yl)-1-((tetrahydro-2H-pyran-3-yl)methyl)-1H-pyrazolo[3,4-b]pyrazin-6-amine or (S)-N-(5-(difluoromethoxy)-1H-pyrazol-3-yl)-1-((tetrahydro-2H-pyran-3-yl)methyl)-1H-pyrazolo[3,4-b]pyrazin-6-amine]	≤ 10 nM	≥ 500 nM
COc1cc(Nc2cnc3cnn(C[C@H]4CCOC4)c3n2)n[nH]1 [Example 70, (R)-N-(5-methoxy-1H-pyrazol-3-yl)-1-((tetrahydrofuran-3-yl)methyl)-1H-pyrazolo[3,4-b]pyrazin-6-amine]	≤ 10 nM	100 to 500 nM
C[C@@H](C1COC1)n1ncc2ncc(Nc3cc(OC(F)F)[nH]n3)nc21 [Example 72, (S)-N-(5-(difluoromethoxy)-1H-pyrazol-3-yl)-1-(1-(oxetan-3-yl)ethyl)-1H-pyrazolo[3,4-b]pyrazin-6-amine]	≤ 10 nM	≥ 500 nM
